# Assay results reported in ChEMBL document CHEMBL1130434, “Simultaneous pharmacokinetic screening of a mixture of compounds in the dog using API LC/MS/MS analysis for increased throughput” (J Med Chem, 1997).
# Assays:
# [1] = Steady-state volume of distribution of compound when administered intravenously as a mixture (five-in-one dose) to a single dog.; format: ADME, organism-based, Canis lupus familiaris; details: in vivo, iv, read-out: Vss
# [2] = Steady-state volume of distribution of compound when administered intravenously as an individual dose to a single dog.; format: ADME, organism-based, Canis lupus familiaris; details: in vivo, iv, read-out: Vss
# [3] = Elimination half-life of compound when administered intravenously as an individual dose to a single dog.; format: ADME, organism-based; details: in vivo, iv
# [4] = Clearance of compound when administered intravenously as a mixture (five-in-one dose) to a single dog.; format: ADME, organism-based, Canis lupus familiaris; details: in vivo, iv
# [5] = Elimination half-life of compound when administered intravenously as a mixture (five-in-one dose) to a single dog.; format: ADME, organism-based; details: in vivo, iv
# [6] = Clearance of compound when administered intravenously as an individual dose to a single dog.; format: ADME, organism-based, Canis lupus familiaris; details: in vivo, iv
SMILES,Vd [1],Vd [2],half-life [3],clearance [4],half-life [5],clearance [6]
COc1ccc(CCN2CCC(c3nc(COCC(F)(F)F)c(-c4ccccc4)o3)CC2)cc1S(N)(=O)=O,0.473 L/kg,0.382 L/kg,84 min,5.9 mL/min/kg,90 min,5 mL/min/kg
CNC(=O)CN(C)S(=O)(=O)c1cc(CCN2CCC(c3nc(COCC(F)(F)F)c(-c4ccc(F)cc4)o3)CC2)ccc1OC,2.86 L/kg,2.91 L/kg,204 min,11.2 mL/min/kg,180 min,11.6 mL/min/kg
CNC(=O)CN(C)S(=O)(=O)c1cc(CCN2CCC(c3nc(COCC(F)(F)F)c(-c4ccccc4)o3)CC2)ccc1OC,2.76 L/kg,3.46 L/kg,126 min,17.3 mL/min/kg,144 min,28.9 mL/min/kg
COc1ccc(CCN2CCC(c3nc(COCC(F)(F)F)c(-c4ccccc4)o3)CC2)cc1S(=O)(=O)NCCNC(C)=O,2.83 L/kg,0.6 L/kg,156 min,18.7 mL/min/kg,174 min,10.3 mL/min/kg
COc1ccc(CCN2CCC(c3nc(COCC(F)(F)F)c(-c4ccc(F)cc4)o3)CC2)cc1S(N)(=O)=O,0.33 L/kg,0.243 L/kg,252 min,0.86 mL/min/kg,294 min,0.9 mL/min/kg
